Assay results as given in patent publication US4746349A, “Method and compositions for suppressing the nitrification of ammonium in plant growth medium” (American Cyanamid Company, priority 1986, dated 1988).

Experiments:
Nitrosomonas spp. = experiment: Nitrification of ammonium in soil incubated at 25° C. (ammonium recovery, nitrate accumulation); settings: 5%, soil 25° C.; for Concentration of nitrate nitrogen / Recovery of Ammonium Nitrogen: 200 ppm N
Protocol: In these evaluations, one hundred grams (100 g) of oven dry, silt loam field soil with low residual nitrogen is added to a 6×12 cm screw-capped glass jar for each sampling date to provide an optimum environment for nitrification.
Two replicates of each treatment-sampling date are established. The soil is adjusted to 50% water saturation with an aqueous solution of ammonium sulfate at 200 ppm N and the chemical to be tested as a nitrification inhibitor at rates of from 0.10 to 0.50 ppm.
Incubation is at either 25° C. or 38° C. for 0, 1, 2, 4, 7, 9, 12, 16 or 20 weeks. Inorganic N is extracted by adding 2M KCl (10:1 v/w) and shaking for one hour, allowing settling for fifteen minutes. A 10 ml aliquot from the supernatant is assayed for ammonium, nitrite and nitrate by standard steam distillation methods (AOAC, pp. 653-655). Nitrapyrin (0.5 ppm) is used as a nitrification inhibitor for comparison. Benzyl alcohol, acetone, and a non-N amended soil are run as controls and as a check on mineralization.
Nitrification: Ammonium recovery and nitrate accumulation are indicative of nitrification, and data obtained with test compounds are reported in Tables I and II.

Nitrobacter spp. = experiment: Nitrite nitrogen in ammonium amended soil incubated at 25° C.; settings: 5%, soil 25° C., 200 ppm N
Protocol: Determination of nitrite nitrogen and nitrate nitrogen in soil prepared in Example 1 above, which is amended with 200 ppm of nitrogen as aqueous ammonium sulfate, […], is determined using the nitrite and nitrate analysis of the American Organization of Analytical Chemists (AOAC pp. 653-655).

CC(C)=O [Acetone]
Effect on nitrification, in words (Nitrosomonas spp.): initial rate of nitrification is slowed slightly
Concentration of nitrate nitrogen (Nitrosomonas spp.; week 0): 19 PPM
Recovery of Ammonium Nitrogen (Nitrosomonas spp.; week 0): 194 PPM
Concentration of nitrate nitrogen (Nitrosomonas spp.; week 1): 7 PPM
Recovery of Ammonium Nitrogen (Nitrosomonas spp.; week 1): 138 PPM
Concentration of nitrate nitrogen (Nitrosomonas spp.; week 2): 0 PPM
Recovery of Ammonium Nitrogen (Nitrosomonas spp.; week 2): 122 PPM
Concentration of nitrate nitrogen (Nitrosomonas spp.; week 4): 36 PPM
Recovery of Ammonium Nitrogen (Nitrosomonas spp.; week 4): 127 PPM
Concentration of nitrate nitrogen (Nitrosomonas spp.; week 7): 75 PPM
Recovery of Ammonium Nitrogen (Nitrosomonas spp.; week 7): 8 PPM
Concentration of nitrate nitrogen (Nitrosomonas spp.; week 9): 100 PPM
Recovery of Ammonium Nitrogen (Nitrosomonas spp.; week 9): 1 PPM
Concentration of nitrate nitrogen (Nitrosomonas spp.; week 12): 155 PPM
Recovery of Ammonium Nitrogen (Nitrosomonas spp.; week 12): 1 PPM
Concentration of nitrate nitrogen (Nitrosomonas spp.; week 16): 165 PPM
Recovery of Ammonium Nitrogen (Nitrosomonas spp.; week 16): 1 PPM
Concentration of nitrite nitrogen (Nitrobacter spp.; week 0): 6 ppm
Concentration of nitrite nitrogen (Nitrobacter spp.; week 1): 4 ppm
Concentration of nitrite nitrogen (Nitrobacter spp.; week 2): -1 ppm
Concentration of nitrite nitrogen (Nitrobacter spp.; week 4): 9 ppm
Concentration of nitrite nitrogen (Nitrobacter spp.; week 7): 56 ppm
Concentration of nitrite nitrogen (Nitrobacter spp.; week 9): 5 ppm
Concentration of nitrite nitrogen (Nitrobacter spp.; week 12): 20 ppm
Concentration of nitrite nitrogen (Nitrobacter spp.; week 16): 10 ppm
Concentration of nitrite nitrogen (Nitrobacter spp.; week 20): 11 ppm
